No end group written: not given here. *: point of attachment. Biotin = O=C1N[C@H]2[C@H](CS[C@H]2CCCCC(=O)*)N1
Assays:
[1] = tested on: antisera; experiment: Inhibition ELISA: cross-reactivity of antisera with peptides of different length; format: binding, mice; conditions: antisera against octapeptide QESGVSGR
Description: Immunization of mice: Separate groups of BCG-vaccinated mice were immunized with six doses (10 μg carrier) of each of these conjugates at 14-day intervals and their sera tested by ELISA in wells coated with the corresponding peptide coupled at molar ratios of 5:1 or 2.5:1 to the opposite carrier at a coating concentration of 10 μg/ml (with respect to carrier) in 0.05 M sodium carbonate buffer, pH 9.6.

[2] = tested on: HYB 100-01-POD; experiment: ELISA: effect of peptide length and N-terminus on the signal with TAL reagent and HYB 100-01-POD; format: binding; conditions: Example 6, FIG. 6, activated TAL, HYB 100-01-POD 0.5 μg/ml; for signal: peptide coupled to Immobilizer plate
Description: PBS (100 μl) was added to all wells of an Immobilizer 96-well microtiter plate (Nunc). The relevant peptides (SEQ ID NO:11, 13, 14, 15 and 16) were all diluted to 50 μg/ml in PBS and 100 μl of individual solutions added to the first well of the respective row. […] The peptides were allowed to couple to the plate for two hours at 20-25° C. Residual coupling activity was reduced by the addition of 50 μl of 50 mM Tris Buffer, pH 8.0, for 30 minutes. Each well was then washed with 100 μl of PBS. To 0.5 ml of TAL reagent (Zhanjiang A&C Biologicals Ltd) was added 15 EU of Control Standard Endotoxin (CSE) followed by 12 ml of endotoxin-free PBS, and 100 μl of this solution was then added to each well. The plate was then incubated at 37° C. for 45 minutes.

[3] = tested on: TAL reagent; conditions: Example 4, FIG. 4; peptide at 40 ng/ml, detection with HYB 100-01-POD
Description: Under precautions to keep endotoxin contamination to a minimum, a solution of peptide (SEQ ID NO:12) at a concentration of 40 ng/ml in LAL reagent water (LRW) (Cambrex) was added to all wells of a streptavidin Immobilizer 96-well microtiter plate (Nunc) at 100 μl per well. After incubation for 10 minutes at 20-25° C., 100 μl of Control Standard Endotoxin (CSE) solution of 10 EU/ml were added to the first well of the appropriate rows. Serial doubling dilutions were then carried out across the plate leaving the last well as a blank without endotoxin. A 0.5-ml vial of TAL reagent (Zhanjiang A&C Biologicals Ltd) was reconstituted in 0.5 ml of LRW. This was diluted 12-, 15-, 30- and 40-fold in endotoxin-free 50 mM Tris buffer (Cambrex), whereupon 100 μl of a given dilution were added to each well of the corresponding row. The microtiter plate was incubated at 37° C. for 45 minutes. The reaction was stopped by quickly emptying the wells followed by 3×2 minute washes with stop buffer (25% isopropanol v/v in 100 mM glycine-HCl, pH 2.4). The plate was then equilibrated with 2×10-30-second washes with wash buffer. HYB 100-01-POD was diluted to 0.5 μg/ml in dilution buffer and added to each well at 100 μl/well. […] The color reaction was stopped by adding 100 μl of 1 M sulfuric acid to each well and the absorbance measured at 450 nm in a microplate reader, subtracting the absorbance at 620 nm.

AQESGVSGR [nonapeptide]
cross-reactivity [1]: > 100%

Biocytin-VQAITDKDEISGR [Peptide SEQ ID NO:11]
coating concentration at which the maximal (or similar) signal is reached [2]: about 0.05 μg/ml | signal [2]: much stronger signal

Biocytin-VQAITDKDEISGRGF [Peptide SEQ ID NO:16]
signal [2]: slightly lower signal

Biotin-VQAITDKDEISGRGF [Peptide SEQ ID NO:12]
cleavage by endotoxin-activated TAL [3]: site-specific cleavage

DKDEISGR [Peptide SEQ ID NO:14]
signal [2]: almost totally lost

GVSGR [pentapeptide]
cross-reactivity ([1]; result in words): little or no cross-reactivity

ITDKDEISGR [Peptide SEQ ID NO:15]
coating concentration at which the maximal (or similar) signal is reached [2]: 12.5 to 25 µg/mL
